Laboratory results as given in patent publication US8133971B2, “Polypeptide specifically bound to phosphatidylserine and the use thereof” (Kyungpook National University Industry Academic Cooperation …, priority 2008, dated 2012).
Ends that are not written are not given here. fluorescein = fluorescein bonded at the N-terminus

Legend:
[1] = system: H460 tumor xenografts; assay: in vivo homing and in vivo/ex vivo visualization in tumor xenografts; parameters: species or system BALB/c male nude mouse; conditions: for in vivo fluorescein signal from tumor tissue: 50 μM through tail vein, after 2 hours; for ex vivo fluorescein signal from tumor tissue: tumor removed 2 hours after peptide injection
Experimental: All of animal experiments are carried out in accordance with guidelines of the kyoungpook national university. For tumor xenografts, H460 cells (1×10^7 cells) floated on RPMI medium containing 10% FBS are injected hypodermically at a right shoulder of a 6 week old BALB/c male nude mouse (SLC, Inc.). Then, tumor cells are allowed to grow about 0.5 to 1.0 cm for 3 weeks.
The mice having tumor cells are divided into a camptothecin treated group and untreated group, and then the camptothecin treated group is taken a dose of camptothecin (Sigma, 10 mg/kg) at 24 hours before peptide treatment. After that, fluorescein-labeled peptide (fluorescein-labeled CLSYYPSYC (SEQ ID NO: 1)) (50 μM) of the present embodiment or a control group peptide (50 μM) is injected through tail vein under isoflurane anesthesia. The peptide induced to the tumor cells are checked at every hour by the optical visualization system (ART Advanced Research Technologies Inc., Montreal, Canada) using […]/GFP filter after peptide injection. To each used mouse, baseline fluorescence of fluorescein is measured before peptide injection. The obtained image is treated and normalized by eXplore Optix optiView Software. After 2 hours of the peptide injection, the tumor is removed from the mouse and then ex vivo visualization of the tumor cell is carried out. The image is treated as above.

[2] = phosphatidylserine binding of phage clone in the presence of annexin V (phage ELISA); conditions: annexin V protein 10 μM
Experimental: The phosphatidylserine binding specificity of the selected phage clone is tested by phosphatidylserine binding in the presence of annexin V.
In short, Immulon 1B microtiter plate is coated with phosphatidylcholine as described in the embodiment 1-2. Then, the plates are blocked with TBS medium containing 10 mg/mL of BSA for 1 hour at room temperature.
The selected phage clone is added to 100 μl of TBS buffer and then the mixture is added to the well coated with phosphatidylcholine. The well is gently shaken for 1 hour at room temperature (incubate). In a group in which annexin V is added, the above phage clone is cultured in the presence of annexin V protein (10 μM) and then 100 μl of TBS buffer is added to the phage clone. The mixture is added to the well coated with phosphatidylserine and then the well is gently shaken for 1 hour at room temperature. The well is strongly washed with TBS-T (TBS containing 0.05% Tween-20) buffer for 6 times and then phages bound to the well are detected by binding HRP (horseradish peroxidase)-bound anti-M13 antibody (New England Biolabs) (dilution, 1:4000 in TBS-T) for 1 hour at room temperature. After that, color reaction is carried out with HRP substrate suspension (TMB, Pierce). The color reaction is stopped by adding 2N H2SO4 and then absorbance is measure by the microplate reader (Bio-Rad, model 550) at 450 nm.

[3] = system: apoptotic cells (H460 cell); assay: competitive inhibition of phage binding to apoptotic cells (phage titer); format: cell-based, Human; conditions: for phage titer of selected phage bound to apoptotic cells after peptide treatment: peptide 50 μM, H460, versus un-treated group
Experimental: The specificity of the phage to phosphatidylserine bound to apoptotic cells is tested by competitive inhibition with annexin V.
A pre-cultured group, which is cultured for 30 minutes with annexin V (10 μM) before the apoptotic cells (H460 cell) are cultured with the phage, is used for the test. And a control group, which is not pre-cultured with annexin V, is used for the test. Phages are bound and eluted as described in the embodiment 4-1 and then phage titer is measured.
And, phage titer of a group treated with the synthesized peptide (50 μM) according to CLSYYPSYC (SEQ ID NO: 1) of amino acid sequence, which is shown in the selected phage clone, is measured. Phage titer of an un-treated group and a group treated with the peptide of the control group are measured. Phages are bound and eluted as described in the embodiment 4-1 and then phage titer is measured.

[4] = system: H460 cells; assay: fluorescence and confocal microscopy of peptide and annexin V marking of cells; format: cell-based, Human; conditions: for marking of apoptotic cells (fluorescent microscope) / marking of normal cells (fluorescent microscope): fluorescein peptide 10 μM, annexin V Alexa fluor 594; for marking of normal cells (fluorescent microscope): normal H460 cells
Experimental: H460 cells are cultured in a chamber slide (Nalgen Nunc Int.) and apoptosis is induced as described in embodiment 4-1. The apoptotic cells are washed with PBS and then the cells are cultured in tyrodes buffer in the presence of a peptide marked with 10 μM of fluorescein for 30 minutes at room temperature. After that, the cells are cultured with annexin V Alexa fluor 594 (Molecular Probes) for 15 minutes at room temperature. The cells are washed with PBS and then fixed with 4% of paraformaldehyde for 5 minutes. After that, the cells are counterstained by 4′,6-diamidino-2-phenylindole (DAPI) and then the cells are treated with a mounting solution to take a picture by fluorescent microscope (Zeiss, Oberkochen, Germany).
Also as shown in the FIG. 4C, the image is taken by a laser confocal microscope (LEICA).

[5] = annexin V binding test of coated plate; conditions: his-tagged recombinant annexin V 20 μg/mL, 1 hour at room temperature
Experimental: For the preparation of a plate (or well) coated by phosphatidylserine or phosphatidylcholine, phosphatidylserine or phosphatidylcholine is dissolved in ethanol (300 μg/mL, 100 μL), and then the solution is placed and dried in Immulon 1B microtiter plate (Thermo, Milford, Mass., USA) for 6 hours in air. To prevent from non-specific binding, TBS (Tris-HCl 50 mM, pH7.4, NaCl 150 mM) containing 10 mg/mL of BSA (bovine serum albumin) is added to the solution and then blocking is performed for 1 hours at room temperature. The plates coated by phosphatidylserine or phosphatidylcholine are evaluated by annexin V binding test so as to use a coated plate.
To bind annexin V, his-tagged recombinant annexin V protein (20 μg/mL) is dissolved in TBS buffer containing 10 mg/mL of BSA and then the solution is placed ELISA plate coated by phosphatidylserine or phosphatidylcholine. After 1 hour of standing at room temperature, the plate is washed by TBS-T buffer for 3 times and the bound annexin V protein is reacted with mouse anti histidine IgG antibody (Santa Cruz Biotechnology) to which HRP is bound and then binding is tested by the reaction with TBM base.

[6] = system: H460 cell; assay: FACS analysis of labeled peptide binding to normal or apoptotic cells; format: cell-based, Human; conditions: fluorescein at N-end, 2.5 μM, 15 minutes; for binding of labeled peptide to apoptotic cells by FACS: apoptotic H460 cell
Experimental: Apoptotic cells are treated with a labeled peptide of the present embodiment and then FACS analyses are carried out to confirm that whether the peptide of the present embodiment is bound to phosphatidylserine of apoptotic cells or not.
The peptide used in the present embodiment has a form in which fluorescein is bonded at N-end. The peptide is synthesized according to the standard Fmoc method and separated by HPLC (Peptron Co.) before use.
The final concentration of the peptide of the present embodiment or the control group peptide (amino acid sequence: NSSVDK (SEQ ID NO: 8)) is 2.5 μM and the solution is dissolved in Hepes buffer (pH7.4, Hepes 10 mM, […] 138 mM, and with/without CaCl2). The solution is mixed with normal H460 cell or dead H460 cell (1×10^5 cells/mL) to become 0.5 mL of final volume and then cultured for 15 minutes at room temperature. The cells are washed with a binding buffer and then FACS analyses are immediately carried out (FACSScan, Becton Dickinson, San Jose, Calif.).

[7] = system: H460 tumor xenografts; assay: histological test of in vivo homing (CD31 staining, TUNEL, organs); conditions: for peptide observed in tumor region stained by CD31: fluorescence microscope
Excerpt: For a histological test, the above mouse undergoes anesthesia and then undergoes laparotomy. PBS and 4% paraformaldehyde (PFA) fixing agent is used for perfusion, and then tumor tissue and organs are removed. After cryosection of each tissue, the peptide of the present embodiment is observed by fluorescence microscope. Tumor vessels are stained by immunohistochemistry using an antibody (BD Pharmigen) to the mouse CD31 and alexa 568 labeled secondary antibody. Cell death in a tumor tissue is verified by TUNEL ([…] terminal deoxynucleotidyl transferase-mediated dUTP nick-end labeling) analyses according to the manufacturer's manual (Chemicon Int. USA).

Row | Substance | in vivo fluorescein signal from tumor tissue [1] | inhibition of phosphatidylserine binding of the selected phage clone [2] | phage titer of selected phage bound to apoptotic cells after annexin V pre-treatment ([3]; annexin V 10 μM, pre-cultured 30 minutes, H460) | marking of apoptotic cells (fluorescent microscope) ([4]; apoptotic H460 cells) | marking of normal cells (fluorescent microscope) [4] | annexin V binding to coated plate [5] | phage titer of selected phage bound to apoptotic cells after peptide treatment [3] | binding of labeled peptide to apoptotic cells by FACS [6] | binding of labeled peptide to normal cells by FACS ([6]; normal H460 cell) | binding site on apoptotic cells compared with annexin V ([4]; apoptotic H460 cells, photo composition / laser confocal microscope) | ex vivo fluorescein signal from tumor tissue [1] | location of peptide fluorescent signal relative to TUNEL staining in tumor ([7]; TUNEL analyses of tumor tissue) | peptide observed in liver and lung tissue ([7]; control group organs, cryosection) | peptide observed in tumor region stained by CD31 ([7]; cryosection) | fluorescence by the peptide in kidney ([7]; cryosection, excreted peptide in the uresis path)
1 | fluorescein-labeled CLSYYPSYC (fluorescein-CLSYYPSYC; cysteine pairing not given here) [… peptide with fluorescein bonded at N-end] | intensively detected | – | – | – | – | – | – | – | – | – | – | – | – | – | –
2 | annexin V: annexin V protein, phosphatidylserine-binding reference (his-tagged recombinant or Alexa fluor 594 labeled) | – | inhibits | greatly decreased | marking is occurred | marking is not occurred | certainly bound | – | – | – | – | – | – | – | – | –
3 | CLSYYPSYC [peptide of the present embodiment] | – | – | – | marking is occurred in both cases | marking is not occurred | – | greatly decreased | certainly bound | not certainly bound | bound to the same site | intensively monitored | observed mainly in the TUNEL stained region | not observed | a large amount | observed
4 | NSSVDK [control group peptide, reference compound] | very weakly monitored or not monitored | – | – | marking is occurred in annexin V case only | – | – | no difference | not certainly bound | – | – | very weakly monitored or not monitored | – | – | not observed | –
